Results on eight compounds are retold here after patent publication US10100097B2, “GIP-GLP-1 dual agonist compounds and methods” (Zealand Pharma A/S, priority 2012, dated 2018).

Numbered stars: 1 amine (or outer) side, 2 acyl side, 3 side chain; on linkers, the order of the positions; unused ones are H or OH. Square brackets hold non-standard residues; d marks the D form. Side chains are listed from the residue outwards. Peptide text beside a SMILES is read from it. * marks the point of attachment. γGlu = O=C(O)[C@H](CCC(=O)[*:2])N[*:1]; Palmitoyl = CCCCCCCCCCCCCCCC(=O)*; Aib = CC(C)(N)C(=O)O

In this assay the target is T1, human GLP-1 R (Homo sapiens, UniProt P43220).
T1 construct: expressed in transfected cells
T1 sequence (P43220 24-463): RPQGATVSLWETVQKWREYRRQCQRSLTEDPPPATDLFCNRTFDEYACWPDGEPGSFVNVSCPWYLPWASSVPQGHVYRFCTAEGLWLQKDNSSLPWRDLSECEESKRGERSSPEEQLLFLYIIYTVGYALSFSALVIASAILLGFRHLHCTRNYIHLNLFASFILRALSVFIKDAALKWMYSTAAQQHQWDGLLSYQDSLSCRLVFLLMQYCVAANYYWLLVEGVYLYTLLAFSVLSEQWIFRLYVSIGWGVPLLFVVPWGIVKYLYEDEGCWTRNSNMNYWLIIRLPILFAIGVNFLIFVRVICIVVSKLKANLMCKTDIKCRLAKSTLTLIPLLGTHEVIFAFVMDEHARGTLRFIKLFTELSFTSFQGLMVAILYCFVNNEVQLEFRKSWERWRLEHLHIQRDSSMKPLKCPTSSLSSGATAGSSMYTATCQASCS
Kind of assay: Human GLP-1 receptor (GLP-1 R) activity assay, cAMP induction (AlphaScreen cAMP kit). Type of assay: cell-based. As to conditions: HEK293 cells expressing the human GLP-1 R, 15 min at 37° C., average values of multiple determinations, read-out: GLP1 R (EC50 in nM). Here is the method: Human GIP Receptor (GIP R) and GLP-1 Receptor (GLP-1 R) Activity Assay
In vitro effects of peptide conjugates of the invention were assessed by measuring the induction of cAMP following stimulation of the respective receptor by GIP, GLP1 or analogues of these, as outlined in the invention, using the AlphaSceen® cAMP kit from Perkin-Elmer according to instructions. Briefly. HEK293 cells expressing the human GIP R or GLP-1 R (stable cell lines generated through transfection of the cDNA for human GIP R or GLP-1 and selection of stable clones) were seeded at 30,000 cells/well in 96-well microtiter plates coated with 0.01% poly-L-lysine, and grown for 1 day in culture in 200 μl growth medium (DMEM, 10% FCS, Penicillin (100 IU/ml), Streptomycin (100 μg/ml)). On the day of analysis, growth medium was removed and the cells were washed once with […] Tyrode's buffer (Tyrode's Salts (9.6 g/1), 10 mM HEPES, pH 7.4). […] The Assay buffer was removed and cells are lysed in 80 μl Lysis buffer (0.1% w/v BSA, 5 mM HEPES, 0.3% v/v Tween-20) per well. From each well 10 μl lysed cells was transferred to a 384-well plate and mixed with 15 μl bead-mix (1 Unit/15 μl anti-cAMP Acceptor Beads, 1 Unit/15 μl Donor Beads, and 1 Unit/15 μl Biotinylated cAMP in Assay Buffer). The plates were mixed and incubated in the dark for an hour at room temperature before measuring using an Envision™ plate reader (Perkin-Elmer).
Background: Alpha assays give light when donor and acceptor beads are brought close together.
With `CC[C@H](C)[C@H](NC(=O)[C@H](CO)NC(=O)[C@H](Cc1ccc(O)cc1)NC(=O)[C@H](CC(=O)O)NC(=O)[C@H](CO)NC(=O)[C@@H](NC(=O)[C@H](Cc1ccccc1)NC(=O)[C@@H](NC(=O)CNC(=O)[C@H](CCC(=O)O)NC(=O)C(C)(C)NC(=O)[C@@H](N)Cc1ccc(O)cc1)[C@@H](C)O)[C@@H](C)O)C(=O)N[C@@H](Cc1ccc(O)cc1)C(=O)N[C@@H](CC(C)C)C(=O)N[C@@H](CCC(=O)O)C(=O)N[C@@H](CO)C(=O)N[C@@H](CCCCN)C(=O)N[C@@H](C)C(=O)N[C@@H](C)C(=O)N[C@@H](Cc1c[nH]cn1)C(=O)N[C@@H](CC(=O)O)C(=O)N[C@@H](Cc1ccccc1)C(=O)N[C@H](C(=O)N[C@@H](CCC(=O)O)C(=O)N[C@@H](Cc1c[nH]c2ccccc12)C(=O)N[C@@H](CC(C)C)C(=O)N[C@@H](CC(C)C)C(=O)N[C@@H](CO)C(=O)N[C@@H](C)C(N)=O)C(C)C` [Compound 41] (H-Y[Aib]EGTFTSDYSIYLESKAAHDFVEWLLSA-NH2), the EC50 (in general, the concentration giving half of the maximal effect) stood at 0.011 nM. To `CCCCCCCCCCCCCCCC(=O)N[C@@H](CCC(=O)NCCCC[C@H](NC(=O)[C@H](CO)NC(=O)[C@H](CC(=O)O)NC(=O)[C@H](CC(C)C)NC(=O)[C@H](Cc1ccc(O)cc1)NC(=O)[C@H](CCCCN)NC(=O)[C@H](CO)NC(=O)[C@H](Cc1ccc(O)cc1)NC(=O)[C@H](CC(=O)O)NC(=O)[C@H](CO)NC(=O)[C@@H](NC(=O)[C@H](Cc1ccccc1)NC(=O)[C@@H](NC(=O)CNC(=O)[C@H](CCC(=O)O)NC(=O)C(C)(C)NC(=O)[C@@H](N)Cc1ccc(O)cc1)[C@@H](C)O)[C@@H](C)O)C(=O)N[C@@H](C)C(=O)N[C@@H](C)C(=O)N[C@@H](Cc1c[nH]cn1)C(=O)N[C@@H](CC(=O)O)C(=O)N[C@@H](Cc1ccccc1)C(=O)N[C@H](C(=O)N[C@@H](CCC(=O)O)C(=O)N[C@@H](Cc1c[nH]c2ccccc12)C(=O)N[C@@H](CC(C)C)C(=O)N[C@@H](CC(C)C)C(=O)N[C@@H](CO)C(=O)N[C@@H](C)C(N)=O)C(C)C)C(=O)O` [Compound 45] (H-Y[Aib]EGTFTSDYSKYLDSK([γGlu-Palmitoyl])AAHDFVEWLLSA-NH2) belongs 0.11 nM; to `CC[C@H](C)[C@H](NC(=O)[C@H](CO)NC(=O)[C@H](Cc1ccc(O)cc1)NC(=O)[C@H](CC(=O)O)NC(=O)[C@H](CO)NC(=O)[C@@H](NC(=O)[C@H](Cc1ccccc1)NC(=O)[C@@H](NC(=O)CNC(=O)[C@H](CCC(=O)O)NC(=O)C(C)(C)NC(=O)[C@@H](N)Cc1ccc(O)cc1)[C@@H](C)O)[C@@H](C)O)C(=O)NC(C)(C)C(=O)N[C@@H](CC(C)C)C(=O)N[C@@H](CC(=O)O)C(=O)N[C@@H](CCCCN)C(=O)N[C@@H](CCCCN)C(=O)N[C@@H](C)C(=O)N[C@@H](CCC(N)=O)C(=O)N[C@@H](CCCNC(=N)N)C(=O)N[C@@H](C)C(=O)N[C@@H](Cc1ccccc1)C(=O)N[C@H](C(=O)N[C@@H](CCC(=O)O)C(=O)N[C@@H](Cc1c[nH]c2ccccc12)C(=O)N[C@@H](CC(C)C)C(=O)N[C@@H](CC(C)C)C(=O)N[C@@H](C)C(=O)N[C@@H](CCC(N)=O)C(=O)NCC(=O)N1CCC[C@H]1C(=O)N[C@@H](CO)C(=O)N[C@@H](CO)C(=O)NCC(=O)N[C@@H](C)C(=O)N1CCC[C@H]1C(=O)N1CCC[C@H]1C(=O)N1CCC[C@H]1C(=O)N[C@@H](CO)C(N)=O)C(C)C` [Compound 2] (H-Y[Aib]EGTFTSDYSI[Aib]LDKKAQRAFVEWLLAQGPSSGAPPPS-NH2), 0.015 nM. For the compound `CC[C@H](C)[C@H](NC(=O)[C@H](CO)NC(=O)[C@H](Cc1ccc(O)cc1)NC(=O)[C@H](CC(=O)O)NC(=O)[C@H](CO)NC(=O)[C@@H](NC(=O)[C@H](Cc1ccccc1)NC(=O)[C@@H](NC(=O)CNC(=O)[C@H](CCC(=O)O)NC(=O)C(C)(C)NC(=O)[C@@H](N)Cc1ccc(O)cc1)[C@@H](C)O)[C@@H](C)O)C(=O)N[C@@H](C)C(=O)N[C@@H](CC(C)C)C(=O)N[C@@H](CCC(=O)O)C(=O)N[C@@H](CCCCN)C(=O)N[C@@H](CCCCN)C(=O)N[C@@H](C)C(=O)N[C@@H](CCC(N)=O)C(=O)N[C@@H](CCCNC(=N)N)C(=O)N[C@@H](C)C(=O)N[C@@H](Cc1ccccc1)C(=O)N[C@H](C(=O)N[C@@H](CC(N)=O)C(=O)N[C@@H](Cc1c[nH]c2ccccc12)C(=O)N[C@@H](CC(C)C)C(=O)N[C@@H](CC(C)C)C(=O)N[C@@H](C)C(=O)NC(C)(C)C(=O)N[C@@H](CCCCN)C(N)=O)C(C)C` [Compound 15] (H-Y[Aib]EGTFTSDYSIALEKKAQRAFVNWLLA[Aib]K-NH2), the half-maximal effective concentration (EC50) was determined as 0.01 nM.

Consider `CC[C@H](C)[C@H](NC(=O)[C@H](CO)NC(=O)[C@H](Cc1ccc(O)cc1)NC(=O)[C@H](CC(=O)O)NC(=O)[C@H](CO)NC(=O)[C@@H](NC(=O)[C@H](Cc1ccccc1)NC(=O)[C@@H](NC(=O)CNC(=O)[C@H](CCC(=O)O)NC(=O)C(C)(C)NC(=O)[C@@H](N)Cc1ccc(O)cc1)[C@@H](C)O)[C@@H](C)O)C(=O)N[C@@H](Cc1ccc(O)cc1)C(=O)N[C@@H](CC(C)C)C(=O)N[C@@H](CC(=O)O)C(=O)N[C@@H](CO)C(=O)N[C@@H](CCCCN)C(=O)N[C@@H](C)C(=O)N[C@@H](CCCCN)C(=O)N[C@@H](CCCNC(=N)N)C(=O)N[C@@H](C)C(=O)N[C@@H](Cc1ccccc1)C(=O)N[C@H](C(=O)N[C@@H](CC(N)=O)C(=O)N[C@@H](Cc1c[nH]c2ccccc12)C(=O)N[C@@H](CC(C)C)C(=O)N[C@@H](CC(C)C)C(=O)N[C@@H](C)C(=O)NC(C)(C)C(=O)N[C@@H](CCCCN)C(N)=O)C(C)C` [Compound 18] (H-Y[Aib]EGTFTSDYSIYLDSKAKRAFVNWLLA[Aib]K-NH2), for which the EC50 was found to be 0.015 nM. Turning to `CCCCCCCCCCCCCCCC(=O)N[C@@H](CCC(=O)NCCCC[C@H](NC(=O)[C@H](CO)NC(=O)[C@H](CC(=O)O)NC(=O)[C@H](CC(C)C)NC(=O)[C@H](Cc1ccc(O)cc1)NC(=O)[C@H](CCCCN)NC(=O)[C@H](CO)NC(=O)[C@H](Cc1ccc(O)cc1)NC(=O)[C@H](CC(=O)O)NC(=O)[C@H](CO)NC(=O)[C@@H](NC(=O)[C@H](Cc1ccccc1)NC(=O)[C@@H](NC(=O)CNC(=O)[C@H](CCC(=O)O)NC(=O)C(C)(C)NC(=O)[C@@H](N)Cc1ccc(O)cc1)[C@@H](C)O)[C@@H](C)O)C(=O)N[C@@H](C)C(=O)N[C@@H](C)C(=O)N[C@@H](Cc1c[nH]cn1)C(=O)N[C@@H](CC(=O)O)C(=O)N[C@@H](Cc1ccccc1)C(=O)N[C@H](C(=O)N[C@@H](CCC(=O)O)C(=O)N[C@@H](Cc1c[nH]c2ccccc12)C(=O)N[C@@H](CC(C)C)C(=O)N[C@@H](CC(C)C)C(=O)N[C@@H](CCCNC(=N)N)C(=O)N[C@@H](C)C(N)=O)C(C)C)C(=O)O` [Compound 51] (H-Y[Aib]EGTFTSDYSKYLDSK([γGlu-Palmitoyl])AAHDFVEWLLRA-NH2), the concentration for a half-maximal effect (EC50) was found to be 0.11 nM. As for `CC[C@H](C)[C@H](NC(=O)[C@H](CO)NC(=O)[C@H](Cc1ccc(O)cc1)NC(=O)[C@H](CC(=O)O)NC(=O)[C@H](CO)NC(=O)[C@@H](NC(=O)[C@H](Cc1ccccc1)NC(=O)[C@@H](NC(=O)CNC(=O)[C@H](CCC(=O)O)NC(=O)C(C)(C)NC(=O)[C@@H](N)Cc1ccc(O)cc1)[C@@H](C)O)[C@@H](C)O)C(=O)N[C@@H](Cc1ccc(O)cc1)C(=O)N[C@@H](CC(C)C)C(=O)N[C@@H](CCC(=O)O)C(=O)N[C@@H](CCCCN)C(=O)N[C@@H](CCCCN)C(=O)N[C@@H](C)C(=O)N[C@@H](C)C(=O)N[C@@H](CCCCN)C(=O)N[C@@H](CC(=O)O)C(=O)N[C@@H](Cc1ccccc1)C(=O)N[C@H](C(=O)N[C@@H](CCC(=O)O)C(=O)N[C@@H](Cc1c[nH]c2ccccc12)C(=O)N[C@@H](CC(C)C)C(=O)N[C@@H](CC(C)C)C(=O)N[C@@H](CO)C(=O)N[C@@H](C)C(N)=O)C(C)C` [Compound 37] (H-Y[Aib]EGTFTSDYSIYLEKKAAKDFVEWLLSA-NH2), the figure is 0.018 nM; as for `CC[C@H](C)[C@H](NC(=O)[C@H](CO)NC(=O)[C@H](Cc1ccc(O)cc1)NC(=O)[C@H](CC(=O)O)NC(=O)[C@H](CO)NC(=O)[C@@H](NC(=O)[C@H](Cc1ccccc1)NC(=O)[C@@H](NC(=O)CNC(=O)[C@H](CCC(=O)O)NC(=O)C(C)(C)NC(=O)[C@@H](N)Cc1ccc(O)cc1)[C@@H](C)O)[C@@H](C)O)C(=O)N[C@@H](Cc1ccc(O)cc1)C(=O)N[C@@H](CC(C)C)C(=O)N[C@@H](CC(=O)O)C(=O)N[C@@H](CCCCN)C(=O)N[C@@H](CCCCN)C(=O)N[C@@H](C)C(=O)N[C@@H](CCC(N)=O)C(=O)N[C@@H](CCCNC(=N)N)C(=O)N[C@@H](C)C(=O)N[C@@H](Cc1ccccc1)C(=O)N[C@H](C(=O)N[C@@H](CC(N)=O)C(=O)N[C@@H](Cc1c[nH]c2ccccc12)C(=O)N[C@@H](CC(C)C)C(=O)N[C@H](C(=O)N[C@@H](C)C(=O)NC(C)(C)C(=O)N[C@@H](CCCCN)C(N)=O)C(C)C)C(C)C` [Compound 21] (H-Y[Aib]EGTFTSDYSIYLDKKAQRAFVNWLVA[Aib]K-NH2), 0.009 nM.
